Measurements from patent US20250388575A1, “HETEROBIFUNCTIONAL COMPOUNDS AND METHODS OF TREATING DISEASE” (Halda Therapeutics OpCo, Inc., priority 2022, published 2025).
Read-outs that look alike come from different tables or passages of the source.

Assays:
androgen receptor = androgen receptor (Homo sapiens, UniProt P10275); test: Assay for binding affinity to androgen receptor ([3H]methyltrienolone radioligand, cell cytosol); conditions: binding to the androgen receptor, 1 nM [3H]methyltrienolone, 24 hr at 4° C.
Description: Fractions of cell cytosol (106 cell/point) were incubated for 24 hr at 4° C. with 1 nM [^3H]methyltrienolone in the absence or presence of the test compound in a buffer containing 25 mM Hepes-Tris (pH 7.4), 1 mM EDTA, 10 mM Na2MoO4, 2 mM DTT, 5 µM triamcinolone acetonide, and 10% glycerol. Nonspecific binding was determined in the presence of 1 μM testosterone. Following incubation, the samples were filtered rapidly under vacuum through glass fiber filters (GF/B, Packard) presoaked with 0.3% PEI and rinsed several times with ice-cold 50 mM Tris-HCl using a 96-sample cell harvester (Unifilter, Packard). The filters were dried then counted for radioactivity in a scintillation counter (Topcount, Packard) using a scintillation cocktail (Microscint 0, Packard). The results are expressed as a percent inhibition of the control radioligand specific binding. The standard reference compound is testosterone, which is tested in each experiment at several concentrations to obtain a competition curve from which its IC50 is calculated.

[1] = system: T-Rex 293 cell line SC3 cells having increased expression of androgen receptor protein; test: Cellular growth inhibition, T-Rex 293 SC3 cells with increased androgen receptor expression (doxycycline), CellTiter-Glo; type: cell-based; conditions: T-Rex 293 SC3 cells with increased androgen receptor expression (exposed to 10 ng/mL doxycycline), 72 hours, CellTiter-Glo; read-out: GI50
Method in brief: (§1)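 SC3, a T-Rex 293 clone with doxycycline-inducible wild-type androgen receptor, was seeded in phenol red-free DMEM with 10% charcoal-dextran FBS, with or without 10 ng/mL doxycycline. Compound added at 24 h (0.5% DMSO) for 72 h at 37° C. CellTiter-Glo 2.0 luminescence; GI50 from four-parameter fit.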

VCaP cells = test: Cellular growth inhibition assay for VCaP cells, CellTiter-Glo; type: cell-based, human; conditions: VCaP cells, 72 hours, CellTiter-Glo, read-out: GI50
Method in brief: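 GI50 values come from four-parameter curve fits of luminescence data normalized to a zero baseline. Compound, in medium with 0.5% DMSO, was added one day after plating and left for 72 h before CellTiter-Glo 2.0 addition.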

[2] = system: T-Rex 293 cell line SC3 cells lacking increased expression of androgen receptor protein; test: Cellular growth inhibition, T-Rex 293 SC3 cells lacking increased androgen receptor expression (no doxycycline), CellTiter-Glo; type: cell-based; conditions: T-Rex 293 SC3 cells lacking increased androgen receptor expression (not exposed to doxycycline), 72 hours, CellTiter-Glo; read-out: GI50
Method in brief: as §1

progesterone receptor = progesterone receptor (Homo sapiens, UniProt P06401); test: PR Human Progesterone NHR Binding (Agonist Radioligand) Assay, [3H]progesterone, T47D cytosol; conditions: 0.5 nM [3H]progesterone, T47D cytosolic fractions, 1 hour at 4° C., legend words it as Kd
Description: Compounds were tested using the PR Human Progesterone NHR Binding (Agonist Radioligand) Assay, Cerep at Eurofins Discovery using a modified version of the protocol from Sarup et al. (Cancer Res 1988; 48:5071-5078). Briefly, cytosolic fractions of T47D cells were incubated with 0.5 nM [^3H]progesterone for 1 hour at 4° C. in the absence or presence of the test compound. Nonspecific binding was determined in the presence of 1 μM promegestone. Reactions were subjected to scintillation counting. Results are expressed as a percent inhibition of the control radioligand specific binding.

T47D cells = test: Cellular growth inhibition assay for T47D cells, CellTiter-Glo; type: cell-based, human; conditions: 72 hours treatment, CellTiter-Glo 2.0
Method in brief: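 Growth inhibition as GI50, fitted with four parameters to CellTiter-Glo luminescence after 72 h of compound exposure (0.5% DMSO). Cells were T47D, grown in insulin-supplemented (0.2 units/mL) DMEM with 10% FBS and treated one day post-seeding.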

Chain of androgen receptor (P10275 whole entry, looked up): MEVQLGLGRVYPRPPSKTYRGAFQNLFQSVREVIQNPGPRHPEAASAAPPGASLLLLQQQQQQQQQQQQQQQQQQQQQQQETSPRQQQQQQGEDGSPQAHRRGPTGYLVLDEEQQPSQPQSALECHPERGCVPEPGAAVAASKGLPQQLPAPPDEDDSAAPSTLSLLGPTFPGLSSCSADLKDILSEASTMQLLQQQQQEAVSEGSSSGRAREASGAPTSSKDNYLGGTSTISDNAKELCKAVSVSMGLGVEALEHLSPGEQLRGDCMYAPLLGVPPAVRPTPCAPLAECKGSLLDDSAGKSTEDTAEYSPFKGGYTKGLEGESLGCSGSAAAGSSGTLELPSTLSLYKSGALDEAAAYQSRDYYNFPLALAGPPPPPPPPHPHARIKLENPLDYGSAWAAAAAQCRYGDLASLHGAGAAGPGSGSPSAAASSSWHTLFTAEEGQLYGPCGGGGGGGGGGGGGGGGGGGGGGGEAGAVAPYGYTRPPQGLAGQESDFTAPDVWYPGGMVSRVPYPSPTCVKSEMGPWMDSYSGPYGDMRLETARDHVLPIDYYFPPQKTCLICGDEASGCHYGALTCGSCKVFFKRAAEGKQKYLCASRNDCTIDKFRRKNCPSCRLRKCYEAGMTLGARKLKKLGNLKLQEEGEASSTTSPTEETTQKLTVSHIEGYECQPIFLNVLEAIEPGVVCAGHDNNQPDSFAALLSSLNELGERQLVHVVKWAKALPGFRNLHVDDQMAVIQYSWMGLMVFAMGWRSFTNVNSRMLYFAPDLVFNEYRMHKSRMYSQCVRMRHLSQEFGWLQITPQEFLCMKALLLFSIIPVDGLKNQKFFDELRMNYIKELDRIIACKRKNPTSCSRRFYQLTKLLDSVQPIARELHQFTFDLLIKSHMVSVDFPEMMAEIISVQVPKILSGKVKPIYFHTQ
Chain of progesterone receptor (P06401 whole entry, looked up): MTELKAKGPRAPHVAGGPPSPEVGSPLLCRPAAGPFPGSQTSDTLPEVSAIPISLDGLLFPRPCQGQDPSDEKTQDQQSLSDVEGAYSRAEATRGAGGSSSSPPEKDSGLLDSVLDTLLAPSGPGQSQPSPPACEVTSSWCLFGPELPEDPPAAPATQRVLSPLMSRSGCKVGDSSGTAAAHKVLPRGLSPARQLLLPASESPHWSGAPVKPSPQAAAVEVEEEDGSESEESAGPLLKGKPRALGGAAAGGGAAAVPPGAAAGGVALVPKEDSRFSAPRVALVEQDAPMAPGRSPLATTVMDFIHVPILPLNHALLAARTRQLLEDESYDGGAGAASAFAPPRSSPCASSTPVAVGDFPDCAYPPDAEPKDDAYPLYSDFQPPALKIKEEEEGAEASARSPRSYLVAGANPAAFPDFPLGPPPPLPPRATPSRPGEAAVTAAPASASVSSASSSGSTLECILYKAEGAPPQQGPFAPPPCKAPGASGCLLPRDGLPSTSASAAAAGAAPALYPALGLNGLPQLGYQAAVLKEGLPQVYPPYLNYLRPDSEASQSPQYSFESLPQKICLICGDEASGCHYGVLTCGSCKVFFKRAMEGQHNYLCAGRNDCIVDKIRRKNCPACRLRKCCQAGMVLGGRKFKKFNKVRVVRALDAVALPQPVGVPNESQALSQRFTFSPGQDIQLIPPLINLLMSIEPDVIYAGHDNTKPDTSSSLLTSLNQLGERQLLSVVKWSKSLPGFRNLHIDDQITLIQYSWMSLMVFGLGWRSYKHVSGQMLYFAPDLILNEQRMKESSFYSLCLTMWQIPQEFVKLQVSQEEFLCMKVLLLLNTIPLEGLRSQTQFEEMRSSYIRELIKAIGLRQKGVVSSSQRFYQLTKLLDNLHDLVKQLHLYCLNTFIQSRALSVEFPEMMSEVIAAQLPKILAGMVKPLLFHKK

| SMILES | Kd (androgen receptor) | GI50 [1] | GI50 (VCaP cells; Homo sapiens) | GI50 [2] | Ki (progesterone receptor) | GI50 (VCaP cells) | GI50 (T47D cells) |
| --- | --- | --- | --- | --- | --- | --- | --- |
| CCS(=O)(=O)Nc1ccc(Oc2cccc(OCCOC3CCN(c4ccc(C(=O)N[C@H]5CC[C@H](Oc6ccc(C#N)c(Cl)c6)CC5)cc4)CC3)c2)c(-c2cn(C)c(=O)c3[nH]ccc23)c1 [I-6, N-[4-(3-chloro-4-cyano-phenoxy)cyclohexyl]-4-[4-[2-[3-[4-(ethylsulfonylamino)-2-(6-methyl-7-oxo-1H-pyrrolo[2,3-c]pyridin-4-yl)phenoxy]phenoxy]ethoxy]-1-piperidyl]benzamide] | 500 to 2500 nM | < 500 nM | < 500 nM | < 500 nM |  |  |  |
| CCS(=O)(=O)Nc1ccc(Oc2cccc(OCCOC3CCN(c4ccc(C(=O)N[C@H]5CC[C@H](Oc6ccc(C#N)c(Cl)c6)CC5)cn4)CC3)c2)c(-c2cn(C)c(=O)c3[nH]ccc23)c1 [I-7, N-[4-(3-chloro-4-cyano-phenoxy)cyclohexyl]-6-[4-[2-[3-[4-(ethylsulfonylamino)-2-(6-methyl-7-oxo-1H-pyrrolo[2,3-c]pyridin-4-yl)phenoxy]phenoxy]ethoxy]-1-piperidyl]pyridine-3-carboxamide] | 500 to 2500 nM | < 500 nM | < 500 nM | < 500 nM |  |  |  |
| CCS(=O)(=O)Nc1ccc(Oc2cccc(OCCOC3CCN(c4cnc(C(=O)N[C@H]5CC[C@H](Oc6ccc(C#N)c(Cl)c6)CC5)cn4)CC3)c2)c(-c2cn(C)c(=O)c3[nH]ccc23)c1 [I-8, N-[4-(3-chloro-4-cyano-phenoxy)cyclohexyl]-5-[4-[2-[3-[4-(ethylsulfonylamino)-2-(6-methyl-7-oxo-1H-pyrrolo[2,3-c]pyridin-4-yl)phenoxy]phenoxy]ethoxy]-1-piperidyl]pyrazine-2-carboxamide] | 500 to 2500 nM | < 500 nM | < 500 nM | < 500 nM |  |  |  |
| CCS(=O)(=O)Nc1ccc(Oc2cccc(OCCOC3CCN(c4ccc(C(=O)N[C@H]5CC[C@H](Oc6ccc(C#N)c(Cl)c6)CC5)nc4)CC3)c2)c(-c2cn(C)c(=O)c3[nH]ccc23)c1 [I-9, N-[4-(3-chloro-4-cyano-phenoxy)cyclohexyl]-5-[4-[2-[3-[4-(ethylsulfonylamino)-2-(6-methyl-7-oxo-1H-pyrrolo[2,3-c]pyridin-4-yl)phenoxy]phenoxy]ethoxy]-1-piperidyl]pyridine-2-carboxamide] | 500 to 2500 nM | < 500 nM | < 500 nM | < 500 nM |  |  |  |
| CCS(=O)(=O)Nc1ccc(Oc2cccc(OCCOC3CCN(c4cnc(C(=O)N[C@H]5CC[C@H](Oc6ccc(C#N)c(Cl)c6)CC5)nc4)CC3)c2)c(-c2cn(C)c(=O)c3[nH]ccc23)c1 [I-10, N-[4-(3-chloro-4-cyano-phenoxy)cyclohexyl]-5-[4-[2-[3-[4-(ethylsulfonylamino)-2-(6-methyl-7-oxo-1H-pyrrolo[2,3-c]pyridin-4-yl)phenoxy]phenoxy]ethoxy]-1-piperidyl]pyrimidine-2-carboxamide] | 50 to 500 nM | < 500 nM | < 500 nM | > 3000 nM |  |  |  |
| CCS(=O)(=O)Cc1ccc(Oc2cccc(OCCOC3CCN(c4cnc(C(=O)N[C@H]5CC[C@H](Oc6ccc(C#N)c(Cl)c6)CC5)cn4)CC3)c2F)c(-c2cn(C)c(=O)c3[nH]ccc23)c1 [I-28] | 50 to 500 nM | < 500 nM | < 500 nM | < 500 nM | 500 to 2500 nM |  |  |
| Cn1cc(-c2cc(C(C)(C)O)ccc2Oc2ccc(C3CN(c4ccc(C(=O)N[C@H]5CC[C@H](Oc6ccc(C#N)c(Cl)c6)CC5)nn4)C3)cc2)c2cc[nH]c2c1=O [I-104] | < 50 nM | < 500 nM |  | 500 to 1500 nM |  | < 500 nM | < 500 nM |
| Cn1cc(-c2cc(C(C)(C)O)ccc2Oc2ccc(CCC3CCN(c4cnc(C(=O)N[C@H]5CC[C@H](Oc6ccc(C#N)c(Cl)c6)CC5)cn4)CC3)cc2)c2cc[nH]c2c1=O [I-119] | 500 to 2500 nM | < 500 nM |  | < 500 nM |  | < 500 nM | < 500 nM |
